The text below walks through data of PMC3708846, “Cathelicidin-like Helminth Defence Molecules (HDMs): Absence of Cytotoxic, Anti-microbial and Anti-protozoan Activities Imply a Specific Adaptation to Immune Modulation” (PLoS Neglected Tropical Diseases, 2013).

For one data set, the system named is Escherichia coli. It is filed as cell-based.
Another data set deals with Pseudomonas aeruginosa. It is filed as cell-based.
Another data set deals with Salmonella typhimurium. It is filed as cell-based.
A further data set relates to Staphylococcus epidermis. It is filed as cell-based.
The next data set has as its system Staphylococcus aureus. It is filed as cell-based.
In the next data set the test system is human red blood cells. Kind of data set: Haemolytic activity. As to conditions: 0.5% human RBC, 1 h 37°C, OD 414 nm, 100% = 1% Triton X-100, triplicate. It is filed as cell-based.
Setting [1] is: Escherichia coli, Mueller Hinton broth, acetic acid/BSA, 1×10^5 bacteria, 37°C 16 h, read at 600 nm.
Where [2] appears, read: Pseudomonas aeruginosa, Mueller Hinton broth, acetic acid/BSA, 1×10^5 bacteria, 37°C 16 h, read at 600 nm.
[3] abbreviates: Salmonella typhimurium, Mueller Hinton broth, acetic acid/BSA, 1×10^5 bacteria, 37°C 16 h, read at 600 nm.
The mark [4] stands for this setting: Staphylococcus epidermis, Mueller Hinton broth, acetic acid/BSA, 1×10^5 bacteria, 37°C 16 h, read at 600 nm.
The mark [5] stands for this setting: Staphylococcus aureus, Mueller Hinton broth, acetic acid/BSA, 1×10^5 bacteria, 37°C 16 h, read at 600 nm.

Values after ≈ are worked out from the molar mass of the structure shown. Values joined by “and” are separate entries in the source; they are usually repeats but may differ in a detail not shown here. Identical values can stand only once. Like-named read-outs stand apart in the source and are kept apart here. Ends that are not written are not given here.

Procedure for Escherichia coli: (§1) The minimal inhibitory concentration (MIC) of each peptide against various bacteria was determined using a standardized dilution method according to NCSLA guidelines [35]. Overnight colonies of E. coli, Pseudomonas aeruginosa, Salmonella typhimurium, Staphylococcus epidermis and Staphylococcus aureus, were suspended to a turbidity of 0.5 OD units and further diluted in Mueller-Hinton broth (MHB). […] Ten microliters of each concentration was added to each corresponding well of a 96-well polypropylene microtiter plate and 1×10^5 bacteria in the volume of 90 µL. The plate was incubated at 37°C for 16 h and then read at 600 nm with a Synergy H1 hybrid reader (Biotek).
Procedure for Pseudomonas aeruginosa: as §1
Procedure for Salmonella typhimurium: as §1
Procedure for Staphylococcus aureus: as §1
Procedure for Staphylococcus epidermis: as §1
Procedure for human red blood cells: The peptide's haemolytic activities were determined using human red blood cells (RBCs; Research Blood Components, LLC) in 96-well polypropylene microtiter plates. One hundred µl of 0.5% RBC suspension was added to an equal volume of a peptide (8–256 µg/ml). After 1 h at 37°C, plates were centrifuged at 1420×g for 5 min and the optical density of the supernatant was measured at 414 nm with a Synergy H1 hybrid reader (Biotek). Values for 0% and 100% lysis were obtained by adding PBS or Triton X-100 (1%; final concentration) to RBCs, respectively. All assays were performed in triplicate and the values of percent lysis were within a 1% standard deviation range.

On to `CC[C@H](C)[C@H](NC(=O)[C@H](CCCCN)NC(=O)[C@H](CCC(=O)O)NC(=O)[C@H](CCCCN)NC(=O)[C@H](CO)NC(=O)[C@H](CCCCN)NC(=O)[C@H](CCCNC(=N)N)NC(=O)[C@H](Cc1ccccc1)NC(=O)[C@H](Cc1ccccc1)NC(=O)[C@H](CC(=O)O)NC(=O)CNC(=O)[C@H](CC(C)C)NC(=O)[C@@H](N)CC(C)C)C(=O)NCC(=O)N[C@@H](CCCCN)C(=O)N[C@@H](CCC(=O)O)C(=O)N[C@@H](Cc1ccccc1)C(=O)N[C@@H](CCCCN)C(=O)N[C@@H](CCCNC(=N)N)C(=O)N[C@H](C(=O)N[C@H](C(=O)N[C@@H](CCC(N)=O)C(=O)N[C@@H](CCCNC(=N)N)C(=O)N[C@H](C(=O)N[C@@H](CCCCN)C(=O)N[C@@H](CC(=O)O)C(=O)N[C@@H](Cc1ccccc1)C(=O)N[C@@H](CC(C)C)C(=O)N[C@@H](CCCNC(=N)N)C(=O)N[C@@H](CC(N)=O)C(=O)N[C@@H](CC(C)C)C(=O)N[C@H](C(=O)N1CCC[C@H]1C(=O)N[C@@H](CCCNC(=N)N)C(=O)N[C@H](C(=O)N[C@@H](CCC(=O)O)C(=O)N[C@@H](CO)C(=O)O)[C@@H](C)O)C(C)C)[C@@H](C)CC)C(C)C)[C@@H](C)CC` [LL-37, reference compound], for which the MIC (as a rule, the lowest concentration found to suppress growth) against Escherichia coli (setting [1]) was 4 µg/mL (≈ 0.89 µM); in the data set with Pseudomonas aeruginosa (setting [2]) it was 8 µg/mL (≈ 1.78 µM); against Salmonella typhimurium (setting [3]), 2 µg/mL (≈ 0.445 µM); against Staphylococcus epidermis (setting [4]), greater than 128 µg/mL; against Staphylococcus aureus (setting [5]), greater than 128 µg/mL. In addition, the Hemolytic activity came out at 1.7% in the data set on human red blood cells (peptide 16 µg/ml); 4.1% with human red blood cells (peptide 32 µg/ml); 10.4% with human red blood cells (peptide 64 µg/ml); 20% in the data set on human red blood cells (peptide 128 µg/ml); 20% in the data set with human red blood cells (peptide 256 µg/ml).
With GGLRSLGRKILRAWKKYGPIIVPIIRIG [BMAP-28], the Hemolytic activity was 50% and 70%. Further, the minimal inhibitory concentration (MIC) in the data set on Escherichia coli (16 h) is 1 µg/mL. The compound further showed an MIC against Pseudomonas aeruginosa (16 h) of 4 µg/mL. In addition, the minimum inhibitory concentration (MIC) in the data set with Salmonella typhimurium (murium, 16 h) amounted to 4 µg/mL. The same compound registered a minimal inhibitory concentration (MIC) in the data set on Staphylococcus epidermis (16 h) of 4 µg/mL. In the data set on Staphylococcus aureus (16 h), this compound registered an MIC of 8 µg/mL.
On to “ISRLAGLLRKGGEKIGEKLKKIGQKIKNFFQKLVPQPE [CRAMP]”, for which the minimal inhibitory concentration (MIC) with Escherichia coli (16 h) is 2 µg/mL; with Pseudomonas aeruginosa (16 h), 4 µg/mL; in the data set on Salmonella typhimurium (murium, 16 h) it was 4 µg/mL; in the data set on Staphylococcus epidermis (16 h), greater than 128 µg/mL; against Staphylococcus aureus (16 h), greater than 128 µg/mL.
As for “AMAYLAKDNLGEKITEVITILLNRLTDRLEKYAG [FhHDM-1p2]”, the MIC against Escherichia coli (setting [1]), in the data set with Pseudomonas aeruginosa (setting [2]), in the data set on Salmonella typhimurium (setting [3]), in the data set with Staphylococcus epidermis (setting [4]) and in the data set with Staphylococcus aureus (setting [5]) was greater than 128 µg/mL each time. For the same compound, the Hemolytic activity came out at 0% in the data set on human red blood cells (peptide 8 µg/ml); 0% with human red blood cells (peptide 16 µg/ml); 1.8% in the data set with human red blood cells (peptide 32 µg/ml); 2.6% in the data set on human red blood cells (peptide 64 µg/ml); 5.4% with human red blood cells (peptide 128 µg/ml); 11.4% with human red blood cells (peptide 256 µg/ml).
As for “MDKYIRKEDLGMKMLDVAKILGRRIEKRMEYIAKK [Sm16-p73]”, the MIC against Escherichia coli (setting [1]), in the data set on Pseudomonas aeruginosa (setting [2]), against Salmonella typhimurium (setting [3]), against Staphylococcus epidermis (setting [4]) and with Staphylococcus aureus (setting [5]) was greater than 128 µg/mL throughout. For the same compound, the Hemolytic activity in the data set on human red blood cells (peptide 8 µg/ml), in the data set with human red blood cells (peptide 16 µg/ml), with human red blood cells (peptide 32 µg/ml), in the data set with human red blood cells (peptide 64 µg/ml), in the data set on human red blood cells (peptide 128 µg/ml) and in the data set with human red blood cells (peptide 256 µg/ml) was 0% throughout.
